In patent publication US20240226056A1, “Sleep or Post-Sleep Performance” (Vanda Pharmaceuticals Inc., priority 2018, published 2024):
Entries after “also recorded” stand apart in the source; their conditions may differ.

What was measured:
[1] = Tasimelteon jet lag disorder (JLD) clinical program; assay type: in vivo, human; conditions: individuals experiencing circadian advances of five to eight hours
[2] = preclinical models of acute phase-shifting and chronic re-entrainment; cited from earlier work
[3] = 10 mg, 20 mg, 50 mg and 100 mg daily doses; 5-hour advance in sleep-wake cycle; cited from earlier work
[4] = Next-day driving performance on the CRCDS automobile driving simulator after a bedtime dose; assay type: in vivo, human; conditions: bedtime dose tasimelteon 20 mg or zopiclone 7.5 mg
Method: In this study, 48 healthy volunteers operate an automobile driving simulator the moming after being administered a bedtime dose of tasimelteon 20 mg, zopiclone 7.5 mg, or placebo. Volunteers are instructed to operate the driving simulator for about one hour with a speed of 55 mph while maintaining lane position.
Driving performance is assessed by a number of validated measures, including standard deviation from lateral position (SDLP), a measure of lane weaving.
An SDLP of 4.4 cm as compared to control is considered equivalent to the driving impairment associated with a blood alcohol content (BAC) of 0.05%, the threshold for drunk driving in many countries.

[5] = from prescribing information; cited from earlier work

SMILES: CCC(=O)NC[C@@H]1C[C@H]1c1cccc2c1CCO2 [tasimelteon]
- benefit in jet lag disorder (in words) [1]: significant benefits
- chronobiotic activity (in words) [2]: potent chronobiotic activity
- shifting dim light melatonin onset and sleep efficacy relative to placebo (in words) [3]: positive outcomes

SMILES: CN1CCN(C(=O)OC2c3nccnc3C(=O)N2c2ccc(Cl)cn2)CC1 (stereo not drawn) [zopiclone]
- SDLP Difference (least squares means) vs Placebo ([4]; 48 healthy volunteers, driving simulator 9 hours post-dose, about one hour at 55 mph): 4.14 cm
- next-day driving impairment compared to placebo (in words) ([4]; evaluated nine hours after dosing): does significantly impair driving ability; also recorded: meaningful and significant effect on lane weaving

SMILES: Cc1ccc(-n2nccn2)c(C(=O)N2CCN(c3nc4cc(Cl)ccc4o3)CC[C@H]2C)c1 [BELSOMRA]
- driving performance in clinical studies (in words) [5]: clinically meaningful impaired driving performance in some subjects
